We go through 90 compounds from the Bradley open melting point set (2014).

Several values for one entry are separate records, joined by “and”; a condition that tells them apart may be missing. Equal values may be shown once. Where a name gives a salt, the structure may show the parent alone.

Consider `Oc1c(Cl)cccc1Cl` [2,6-dichlorophenol], for which the melting point is 67 °C and 68.5 °C and 65 °C (2×).
With `CCCCCCCCCCCCCCCCCC(=O)OC` [methyl stearate], the melting point amounted to 40 °C.
Compound `N#Cc1ccc(N)cc1` [4-aminobenzonitrile] gave a melting point of 85 °C.
Turning to `CC(C)c1ccccc1B(O)O` [2-isopropylbenzeneboronic acid], the melting point turned out to be 86 °C.
Regarding `NS(=O)(=O)Cc1ccccc1` [alpha-toluenesulfonamide], the melting point amounted to 103 °C.
`c1ccc([Si]2(c3ccccc3)O[Si](c3ccccc3)(c3ccccc3)O[Si](c3ccccc3)(c3ccccc3)O[Si](c3ccccc3)(c3ccccc3)O2)cc1` [octaphenylcyclotetrasiloxane] gave a melting point of 201 °C.
`Cc1noc(C)c1B(O)O` [3,5-dimethylisoxazole-4-boronic acid] had a melting point of 107 °C.
`Clc1cc(Cl)c(Cl)c(Cl)c1` [1,2,3,5-Tetrachlorobenzene]: the melting point was 51.5 °C.
Regarding `O=C1CSc2ccccc2N1` [(2h)1,4-benzothiazin-3(4h)-one], the melting point stood at 177 °C.
Compound `CSc1ccc(B(O)O)cc1` [4-(methylthio)benzeneboronic acid] had a melting point of 210 °C.
As for `Cc1cc(O)ccc1Br` [4-Brom-3-methylphenol], the figure is 64 °C; as for `Cc1c(O)cccc1O` [2-methylresorcinol], 120 °C.
Take `CCN(CC)c1ccc2c(C)cc(=O)oc2c1` [7-diethylamino-4-methylcoumarin]: the melting point was found to be 74 °C.
Compound `CCOC(=O)C(C)=O` [ethyl pyruvate] returned a melting point of -58 °C.
Turning to `CC12CCC3C(CCC4CC(OCc5ccccc5)CCC43C)C1CCC2=O` (stereo not given) [3-(benzyloxy)androstan-17-one], the melting point came out at 220 °C.
As for `O=C(O)c1ccc(Br)c(C(=O)O)c1` [4-bromoisophthalic acid], the figure is 299 °C; as for `N#Cc1ccccc1Cl` [2-chlorobenzonitrile], 45 °C; as for `Cl/C(Cl)=C/C3C(C(=O)OCc2cccc(Oc1ccccc1)c2)C3(C)C` (stereo not given), 34 °C.
Take `Cc1cc(N)nc(C)n1` [4-amino-2,6-dimethylpyrimidine]: the melting point stood at 185 °C.
`Oc1ccc(O)c(Cl)c1` [2-chlorohydroquinone] gave a melting point of 102 °C.
`CN(C)c1ccc(C=O)cc1` [4-dimethylaminobenzaldehyde]: the melting point was found to be 74.5 °C.
In turn, `CC(C)(C)c1ccc(C(=O)O)cc1` [4-tert-butylbenzoic acid] returned a melting point of 166 °C.
For `Cc1c(N(C)C)c(=O)n(-c2ccccc2)n1C` [Aminopyrine], the melting point worked out at 108 °C.
Regarding `Cc1ccc(C(=O)O)cc1F` [3-fluoro-4-methylbenzoic acid], the melting point came to 170 °C.
`OCc1cccc(B(O)O)c1` [3-(hydroxymethyl)benzeneboronic acid]: the melting point was found to be 96 °C.
Regarding `Nc1ccc(C2CCCCC2)cc1` [4-cyclohexylaniline], the melting point turned out to be 54 °C.
The same measure for `OB(O)c1ccoc1` [furan-3-boronic acid]: 142 °C.
As to `OCc1ccccc1` [Phenylmethanol], the melting point was -15 °C.
The same measure for `C=C(C)Br` [2-bromopropene]: -87 °C; for `Nc1ccc(NC(=O)c2ccc(N)cc2)cc1` [4,4'-diaminobenzanilide]: 201 °C; for `CCC1(C2=CCCCCC2)C(=O)NC(=O)NC1=O` [heptabarbital]: 174 °C.
In turn, `Cc1ncc([N+](=O)[O-])n1C` [dimetridazole] returned a melting point of 140 °C.
`CCCC(C)Br` (stereo not given) [2-bromopentane] showed a melting point of -96 °C.
For the compound `CC(=O)S` [thioacetic acid], the melting point was -17 °C.
The compound `ON=C(Cl)c1ccc(Cl)cc1` [4-chloro-N-hydroxybenzenecarboximidoyl chloride] had a melting point of 278 °C.
Regarding `Cc1cc(CC(=O)O)ccc1F` [4-fluoro-3-methylphenylacetic acid], the melting point came to 106 °C.
`Cn1nnc2ccccc21` [1-methyl-1h-benzotriazole] returned a melting point of 65 °C.
As for `C[C@]12CC[C@H]3[C@@H](CCC4=CC(=O)CC[C@@]43C)[C@@H]1CC[C@@H]2O` [Testosterone], the melting point came out at 155 °C.
As for `c1ccc(COCc2ccccc2)cc1` [benzyl_ether], the melting point is 3 °C.
As for `O=C1NC(=O)C(c2ccccc2)(c2ccccc2)N1` [5,5-diphenylhydantoin], the figure is 296 °C; as for `O=C(NCc1ccccc1)c1ccccc1` [N-benzylbenzamide], 106 °C.
`COc1cccc2c1C(=O)c1c(O)c3c(c(O)c1C2=O)C[C@@](O)(C(=O)CO)C[C@@H]3O[C@H]1C[C@H](N)[C@H](O)[C@H](C)O1` [Doxorubicin]: the melting point is 204 °C.
The same measure for `NC(=O)c1cc(F)ccc1F` [2,5-difluorobenzamide]: 112 °C.
Compound `COc1ccccc1O` [2-methoxyphenol] yielded a melting point of 30 °C.
In the case of `BrC(Br)c1ccccc1C(Br)Br` [alpha,alpha,alpha',alpha'-tetrabromo-o-xylene], the melting point is 116 °C.
`C=CC(=O)OCCCC` [N-butyl acrylate] yielded a melting point of -64 °C.
The same measure for `[O-]/[N+](=N\c1ccccc1)c1ccc(/N=N/c2ccccc2)cc1` [(E)-1-phenyl-2-{4-[(Z)-phenyl-NNO-azoxy]phenyl}diazene]: 131 °C.
Turning to `Cc1cc2[nH]c(C)cc(=O)n2n1` [2,5-dimethylpyrazolo[1,5-a]pyrimidin-7(4h)-one], the melting point came to 253 °C.
The compound `CCOC(=O)c1cc2c(oc1=O)-c1ccc(OC)cc1CC2` displayed a melting point of 142 °C.
As for `O=[N+]([O-])c1ccc(Cl)cc1Cl` [2,4-dichloronitrobenzene], the figure is 31 °C.
In the case of `COc1ccc(N)c(C)c1` [4-methoxy-2-methylaniline], the melting point is 14 °C.
In the case of `O=[N+]([O-])c1ccc(/C=C/c2ccccc2[N+](=O)[O-])cc1` [1-nitro-2-[(E)-2-(4-nitrophenyl)ethenyl]benzene], the melting point was 139 °C.
As to `CN(C)C(=O)Nc1ccc(Cl)cc1` [Monuron], the melting point is 174 °C.
`CCOC=O` [ethyl formate] displayed a melting point of -81 °C.
The same measure for `OCC(O)C(O)C(O)C(O)CO` (stereo not given) [Mannitol]: 168 °C.
For `CCC1(c2ccccc2)C(=O)NC(=O)NC1=O` [phenobarbital], the melting point came to 175 °C.
Compound `COc1cccc(C(=O)O)c1` [3-Methoxybenzoic acid] yielded a melting point of 106 °C.
The same measure for `CCOC(=O)C(C#N)=C(SC)SC` [Ethyl 2-cyano-3,3-bis(methylsulfanyl)acrylate]: 54 °C.
As for `Cc1cc(Br)cn(C)c1=O` [5-bromo-1,3-dimethyl-2-pyridone], the melting point amounted to 106 °C.
For the compound `O=[N+]([O-])c1cc[n+]([O-])c(Br)c1` [2-bromo-4-nitropyridine n-oxide], the melting point is 145 °C.
Compound `O=[N+]([O-])c1ccc(-c2nnc3sc(/C=C/c4ccccc4)nn23)cc1` returned a melting point of 113 °C.
In the case of `COc1cc(/C=C/C(=O)c2ccccc2O)ccc1O`, the melting point is 129 °C (2×) and 128 °C.
`O=C(O)CCS` [3-mercaptopropionic acid] returned a melting point of 18 °C.
The compound `CCOC(=O)c1ccccc1N` [ethyl anthranilate] registered a melting point of 15 °C.
The same measure for `CCCCC=O` [Pentanal]: -91.5 °C; for `OC(CS)C(O)CS` (stereo not given) [1,4-Disulfanylbutane-2,3-diol]: 43 °C.
In the case of `CCCCCCCCN(C)C` [N,N-dimethyl-n-octylamine], the melting point was -57 °C.
The compound `ON(/C=C/c1ccccc1)c1ccccc1` [N-hydroxy-N-[(E)-2-phenylethenyl]aniline] returned a melting point of 120 °C.
For `CCCC(C)(COC(N)=O)COC(N)=O` [meprobamate], the melting point came to 104 °C.
`O=[N+]([O-])c1ccc(O)cc1` [p-nitrophenol]: the melting point was determined as 115 °C.
Compound `COc1ccc(N)cc1` [p-anisidine] came in with a melting point of 59 °C.
The compound `OCCCCCCCCO` [1,8-octanediol] returned a melting point of 60 °C.
`COc1ccc2c(c1)[C@@]13CCCC[C@@H]1[C@@H](C2)N(C)CC3` [dextromorphan] registered a melting point of 110 °C.
The same measure for `Nc1ccccc1` [aniline]: -6 °C.
The compound `COc1ccc(C=O)cc1` [4-methoxybenzaldehyde] showed a melting point of 1 °C.
The compound `CC(=O)NCO` [N-(hydroxymethyl)acetamide] came in with a melting point of 50 °C.
In turn, `c1ccc2c(c1)ccc1cc3c(ccc4ccccc43)cc12` [dibenz[a,h]anthracene] had a melting point of 270 °C.
The compound `CCC1(c2ccccc2)C(=O)NC(=O)NC1=O` [Phenobarbital] registered a melting point of 174 °C.
`CCCCC1C(=O)N(c2ccccc2)N(c2ccccc2)C1=O` [Phenylbutazone] yielded a melting point of 107 °C.
Compound `Cc1cccc2c1Cc1ccccc1-2` [1-methylfluorene] showed a melting point of 85 °C.
As for `O=[N+]([O-])c1ccc(CCl)cc1` [4-nitrobenzyl chloride], the figure is 72 °C.
Consider `COc1ccc(OC)c(C=O)c1` [2,5-dimethoxybenzaldehyde], for which the melting point was found to be 52 °C.
The compound `O=C(Cl)c1ccc(F)cc1` [4-fluorobenzoyl chloride] came in with a melting point of 10 °C.
`C=CCCCCCCCCCC` [1-dodecene] had a melting point of -35 °C.
Turning to `CC(=O)O` [acetic_acid], the melting point turned out to be 17 °C.
In turn, `COc1cc(C(=O)c2ccc(-c3ccccc3)cc2)c([N+](=O)[O-])cc1OC` [biphenyl-4-yl(4,5-dimethoxy-2-nitrophenyl)methanone] returned a melting point of 145 °C.
Regarding `CCOc1cccc(B(O)O)c1` [3-ethoxybenzeneboronic acid], the melting point was determined as 144 °C.
`CCc1ccc(C)nc1` [5-ethyl-2-methylpyridine] registered a melting point of -71 °C.
The same measure for `C=C[C@H]1C[N@@]2CC[C@H]1C[C@@H]2[C@@H](O)c1ccnc2ccccc12` [cinchonine]: 258 °C; for `C1=CCCCC1` [Cyclohexene]: -104 °C.
